Tests used:
Type in all cases: in vivo, C57BL/6J male mice
TNF-α, IL-4, IL-1β, IL-6 = experiment: Plasma inflammatory cytokine levels; conditions: between the groups (YC, NC, DRH)
Description: (§1) For cytokine analysis, plasma cytokines (TNF-α, IL-1β, and IL-4) were measured with a Merck Millipore product (MCYTOMAG-70K, Merck, USA). Plasma (30 μL) from each mouse was analyzed in duplicate. Hormone analysis was performed using a cortisol and testosterone parameter assay kit (R&D Systems, USA).

[1] = Testosterone and cortisol levels
Description: as §1

gastrocnemius tissue = experiment: H&E and Sirius red staining of gastrocnemius tissue
Description: For morphological tissue observation, parts of liver and muscle tissues were fixed with a 10% formaldehyde solution for 24 hours. Thereafter, the samples were subjected to replacement with the same solution twice, dehydrated twice with ethanol, embedded in paraffin, and treated with poly-L-lysine to prepare tissue slices having a thickness of 5 μm. For morphological analysis, among the prepared tissue sections, the liver tissue was stained with H&E and MT, and the muscle tissue was stained with H&E and Sirius red, and magnified 200 times under an optical microscope. For IHC analysis, the muscle tissue was stained with IGF-1 and Myostatin, and then observed under an optical microscope.

[2] = Muscle and liver glycogen and fasting blood glucose
Description: Specifically, a negative control group (NC, n=7, American Institute of Nutrition AIN-93G Semisynthetic diet); a D-ribo-2-hexulose-treated group (D-ribo-2-hexulose; DRH, n=7; a portion of cellulose in AIN-93G was replaced with 3% D-ribo-2-hexulose). […] The dose of D-ribo-2-hexulose was set at 3% based on previous animal studies. In the previous studies, the dose of D-ribo-2-hexulose was determined to be 3% in order to investigate a biological effect at a lower dose than the dose. During the experiment, the mice had free access to distilled water, and the food intakes and body weights of the mice were measured weekly, and blood glucose was measured once every 4 weeks. All animal experiments were approved by the Animal Research Ethics Committee of KyungPook National University (Approval Number: KNU-2020-109).

aged mice = experiment: Whole-body tension (digital force gauge); conditions: DRH group; decrease in NC vs YC
Description: The whole-body tension was measured and evaluated using a digital force gauge (Korea, JM Instruments Corp., FGJN.FGP Series). For each mouse, the whole-body tension was measured and evaluated at intervals of 5 days. In order to evaluate the whole-body tension on week 10 of the experiment, the average value of the maximum whole-body tension was calculated as force per body weight (Ng^−1 BW).

O=C(CO)[C@H](O)[C@H](O)[C@H](O)CO [DRH, D-ribo-2-hexulose]
level of inflammatory cytokine IL-1β (TNF-α, IL-4, IL-1β, IL-6): not significantly different | level of inflammatory cytokine IL-4 (TNF-α, IL-4, IL-1β, IL-6): not significantly different | level of inflammatory cytokine IL-6 (TNF-α, IL-4, IL-1β, IL-6): not significantly different | level of inflammatory cytokine TNF-α (TNF-α, IL-4, IL-1β, IL-6): not significantly different | cortisol level ([1]; DRH group): decreased | testosterone level ([1]; DRH group vs NC group): did not show a significant difference | progression of fibrosis (Sirius red staining) (gastrocnemius tissue; DRH group): reduced to that of the YC group | size of muscle fibers (H&E staining) (gastrocnemius tissue; reduction observed in NC group): improved | fasting blood glucose level ([2]; at 12 weeks, DRH group vs NC group): significantly decreased | liver glycogen content ([2]; between the groups): not significantly different | muscle glycogen content ([2]; quadriceps, between the groups): not significantly different | whole-body tension (aged mice): dramatically compensated for the decrease

— patent US12582614B2, “Composition for preventing, alleviating or treating sarcopenia, containing D-ribo-2-hexulose as active ingredient” (KYUNGPOOK NATIONAL UNIVERSITY INDUSTRY-ACADEMIC COOPERATION …, priority 2021, dated 2026)
